Structures are written as SMILES. Bounds are passed on as bounds.

The target in one assay is Prothrombin (Homo sapiens, UniProt P00734). The experiment in a line: Inhibition of human Thrombin.
Assay [1] deals with T1, Serine protease 1 (Homo sapiens, UniProt P07477). The experiment in a line: In vitro inhibitory activity against human trypsin.
Assay [2] addresses T1, Serine protease 1. Description: In vitro inhibitory activity against human trypsin at 100 uM.

T1 sequence (P07477 whole entry): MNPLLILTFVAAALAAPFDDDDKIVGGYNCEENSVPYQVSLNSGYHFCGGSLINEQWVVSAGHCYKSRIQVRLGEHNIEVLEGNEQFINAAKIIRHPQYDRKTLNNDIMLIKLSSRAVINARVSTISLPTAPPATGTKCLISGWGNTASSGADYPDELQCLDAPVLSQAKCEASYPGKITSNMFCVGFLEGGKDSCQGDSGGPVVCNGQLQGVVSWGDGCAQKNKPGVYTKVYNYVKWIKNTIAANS

The IC50 is the concentration that inhibits the measured activity by half. Low values mean higher potency, high ones lower potency. With `N=C(N)NCCC[C@H](NC(=O)[C@@H]1CC[C@H]2CN(C(=O)CCc3ccccc3)CC(=O)N21)C(=O)c1nc2ccccc2s1`, the IC50 on Prothrombin and on Serine protease 1 [1] was below 1 nM each time.

In the case of `Cn1c(C(=O)[C@H](CCCNC(=N)N)NC(=O)[C@@H]2CC[C@H]3CN(C(=O)CCc4ccccc4)CC(=O)N32)nc2ccccc21`, the IC50 at Prothrombin came out at 51 nM; against Serine protease 1 [1], 3360 nM. Consider `Cc1nc(C(=O)[C@H](CCCN=C(N)N)NC(=O)[C@@H]2CC[C@H]3CN(C(=O)CCc4ccccc4)CC(=O)N32)sc1CCO`, for which the IC50 on Prothrombin is 15 nM; at Serine protease 1 [1] it was 12 nM. For `Cn1ccnc1C(=O)[C@H](CCCNC(=N)N)NC(=O)[C@@H]1CC[C@H]2CN(C(=O)CCc3ccccc3)CC(=O)N21`, the IC50 on Prothrombin came out at 2370 nM; on Serine protease 1 [1] it was 27400 nM. The compound `N=C(N)NCCC[C@H](NC(=O)[C@@H]1CC[C@H]2CN(C(=O)CCc3ccccc3)CC(=O)N21)C(=O)c1nccs1` gave an IC50 at Serine protease 1 [1] below 1 nM. Turning to `N=C(N)NCCC[C@H](NC(=O)[C@@H]1CC[C@H]2CN(C(=O)CCc3ccccc3)CC(=O)N21)C(=O)c1ccccn1`, the IC50 at Prothrombin stood at 340 nM; at Serine protease 1 [1], 160 nM. Consider `N=C(N)NCCC[C@H](NC(=O)[C@@H]1CC[C@H]2CN(C(=O)CCc3ccccc3)CC(=O)N21)C(=O)c1nc2c(s1)CCC2`, for which the IC50 against Prothrombin was found to be 18 nM; against Serine protease 1 [1], 2 nM. In the case of `Cc1csc(C(=O)C(CCCNC(=N)N)NC(=O)[C@@H]2CC[C@H]3CN(C(=O)CCc4ccccc4)CC(=O)N32)n1` (some centres not stated), the figures for the IC50 at Prothrombin and against Serine protease 1 [1] were 44 nM and 24 nM, respectively. Regarding `N=C(N)c1cccc(CC(NC(=O)[C@@H]2CC[C@H]3CN(C(=O)CCc4ccccc4)CC(=O)N32)C(=O)c2nc3ccccc3s2)c1` (some centres not stated), the IC50 is 57 nM against Prothrombin and 970 nM against Serine protease 1 [1]. On to `NCCCC[C@H](NC(=O)[C@@H]1CC[C@H]2CN(C(=O)CCc3ccccc3)CC(=O)N21)C(=O)c1nccs1`, for which the IC50 worked out at 77 nM against Prothrombin and 14 nM on Serine protease 1 [1]. As usually defined, the inhibition is the share of the control response that was lost under treatment. A high value points to strong suppression. On Serine protease 1 [2], `Cn1c(C(=O)[C@H](CC2CCCN(C(=N)N)C2)NC(=O)[C@@H]2CC[C@H]3CN(C(=O)CCc4ccccc4)CC(=O)N32)nc2ccccc21` (some centres not stated) showed an inhibition of 40%. In addition, at Prothrombin, the IC50 amounted to 750 nM. Turning to `Cn1c(C(=O)[C@H](CCCCN)NC(=O)[C@@H]2CC[C@H]3CN(C(=O)CCc4ccccc4)CC(=O)N32)nc2ccccc21`, the IC50 against Prothrombin was found to be 2050 nM; on Serine protease 1 [1] it was 8490 nM. Regarding `Cn1c(C(=O)[C@H](Cc2cccc(C(=N)N)c2)NC(=O)[C@@H]2CC[C@H]3CN(C(=O)CCc4ccccc4)CC(=O)N32)nc2ccccc21`, the IC50 at Prothrombin turned out to be 450 nM; against Serine protease 1 [1], 18700 nM. For `N=C(N)N1CCCC(C[C@H](NC(=O)[C@@H]2CC[C@H]3CN(C(=O)CCc4ccccc4)CC(=O)N32)C(=O)c2nc3ccccc3s2)C1` (some centres not stated), in that order: below 1 nM and 590 nM.

The values are drawn from ChEMBL document CHEMBL1132074, “Potent and selective bicyclic lactam inhibitors of thrombin: Part 3: P1' modifications” (Bioorg Med Chem Lett, 1999).
